Assay results as given in patent publication US20110262360A1, “Compositions Comprising Enzyme-Cleavable Phenol-Modified Opioid Prodrugs and Inhibitors Thereof” (priority 2010, published 2011).
Where “and” joins values, the source holds several entries; their conditions need not be identical. Equal entries are not always repeated. Entries after “also recorded” stand apart in the source; their conditions may differ. Where two headings read alike, the source gives them in different places.

Tests used:
[1] = biological target: T1, trypsin from bovine pancreas (Bos taurus, UniProt P00760); test: In vitro trypsin conversion of prodrugs to hydromorphone and inhibition by trypsin inhibitor
T1 sequence (P00760 24-246): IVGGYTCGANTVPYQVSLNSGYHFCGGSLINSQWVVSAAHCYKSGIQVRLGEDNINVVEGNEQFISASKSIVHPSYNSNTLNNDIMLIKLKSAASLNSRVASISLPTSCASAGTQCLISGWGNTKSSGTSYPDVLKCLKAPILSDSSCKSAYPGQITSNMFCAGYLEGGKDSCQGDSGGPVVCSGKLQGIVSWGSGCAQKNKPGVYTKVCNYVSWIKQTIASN
Description: The reactions were conducted at 37° C. for 24 hr. Samples were collected at specified time points, transferred into 0.5% formic acid in acetonitrile to stop trypsin activity and stored at less than −70° C. until analysis by LC-MS/MS.
The results are expressed as half-life of prodrug when exposed to trypsin (i.e., Prodrug trypsin half-life) in hours and rate of formation of HM per unit of trypsin.

[2] = Oral administration of Compound PC-1 and BBSI inhibitor to rats: hydromorphone in blood; settings: PC-1 20 mg/kg PO
[3] = Oral administration of Compound PC-1 and SBTI trypsin inhibitor to rats: hydromorphone in blood; settings: for Cmax of hydromorphone in rat blood: PC-1 20 mg/kg PO
[4] = Oral administration of Compound PC-1 and SBTI in the presence of ovalbumin to rats: hydromorphone in plasma; settings: for Cmax of hydromorphone in rat plasma: PC-1 20 mg/kg PO; for plasma Tmax of hydromorphone: rats; for Effect on Compound PC-1's ability to release hydromorphone: rats PO, PC-1 20 mg/kg with ovalbumin and/or SBTI
Description: In an effort to understand the role of SBTI, ovalbumin was used as a non-trypsin inhibitor protein control. Albumin from chicken egg white (ovalbumin) (Catalog No. A7641, Grade VII, lyophilized powder, Sigma-Aldrich) was dissolved in saline.

[5] = PC-3 20 mg/kg PO
[6] = for Cmax of hydromorphone in rat plasma / Tmax of hydromorphone in rat plasma: PC-3 20 mg/kg PO
[7] = for Cmax of HM in rat plasma / Tmax of HM in rat plasma: PC-4 20 mg/kg PO
[8] = PC-4 20 mg/kg PO
[9] = Oral administration of Compound PC-2 and SBTI to rats: hydromorphone in plasma; settings: for Cmax of hydromorphone in rat plasma: PC-2 20 mg/kg PO
trypsin = biological target: T2, trypsin (Bos taurus, UniProt P00760); test: In vitro IC50, modified trypsin assay; format: biochemical
T2 sequence (P00760 24-246): T1 sequence (P00760 24-246)

[10] = No trypsin inhibitor, 0.761 mM prodrug, 37° C., Tris pH 8

Molecule: CC(=O)NC(CCCNC(=N)N)C(=O)NCCN(C)C(=O)Oc1ccc2c3c1OC1C(=O)CCC4C(C2)N(C)CCC314 (stereo not drawn) [Compound PC-1, Hydromorphone 3-(N-methyl-N-(2-N′-acetylarginylamino)) ethylcarbamate]
- Rate of HM formation, umols/h/umol trypsin Average ± sd [1, 10]: 230 ± 8 umols/h/umol trypsin
- Cmax of hydromorphone in rat blood ([2]; BBSI 0 mg/kg, n = 4): 16.5 ± 5.3 ng/mL
- Cmax of rat not included in n = 3 analysis ([2]; BBSI 100 mg/kg, individual rat, blood): 43 ng/mL
- Cmax of hydromorphone in rat blood ([2]; BBSI 100 mg/kg, n = 3 (3 of the 4 rats)): 10.6 ± 5.9 ng/mL
- Cmax of hydromorphone in rat blood ([2]; BBSI 100 mg/kg, n = 4): 18.7 ± 17.0 ng/mL
- Cmax range of other rats ([2]; BBSI 100 mg/kg, the 3 other rats, blood): 6.8 to 17 ng/mL
- Cmax of hydromorphone in rat blood ([3]; SBTI 0 mg/kg): 16.5 ± 5.3 ng/mL
- Cmax of hydromorphone in rat blood ([3]; SBTI 10 mg/kg): 8.9 ± 1.8 ng/mL
- Cmax of hydromorphone in rat blood ([3]; SBTI 100 mg/kg): 6.0 ± 4.0 ng/mL
- Cmax of hydromorphone in rat blood ([3]; SBTI 500 mg/kg): <5 ng/mL
- Cmax of hydromorphone in rat blood ([3]; SBTI 1000 mg/kg): <5 ng/mL
- Cmax of hydromorphone in rat plasma ([4]; OVA 0 mg/kg, SBTI 0 mg/kg): 13.3 ± 3.7 ng/mL
- Cmax of hydromorphone in rat plasma ([4]; OVA 20 mg/kg, SBTI 0 mg/kg): 11.0 ± 5.4 ng/mL
- Cmax of hydromorphone in rat plasma ([4]; OVA 100 mg/kg, SBTI 0 mg/kg): 9.7 ± 3.1 ng/mL
- Cmax of hydromorphone in rat plasma ([4]; OVA 500 mg/kg, SBTI 0 mg/kg): 11.6 ± 2.5 ng/mL
- Cmax of hydromorphone in rat plasma ([4]; OVA 500 mg/kg, SBTI 500 mg/kg): 1.9 ± 0.9 ng/mL
- Cmax of hydromorphone in rat plasma ([4]; OVA 1000 mg/kg, SBTI 0 mg/kg): 10.3 ± 3.5 ng/mL
- plasma Tmax of hydromorphone ([4]; 20 mg/kg Compound PC-1 alone): 2.3 h
- plasma Tmax of hydromorphone ([4]; 20 mg/kg Compound PC-1 with 500 mg/kg OVA and 500 mg/kg SBTI): 8.0 h

Molecule: CC(=O)N[C@@H](CCCCN)C(=O)NCCN(C)C(=O)Oc1ccc2c3c1OC1C(=O)CCC4C(C2)N(C)CCC314 (stereo partly drawn) [Compound PC-3, (S)-2-Acetylamino-6-amino-hexanoic acid (2-methylamino-ethyl)-amide hydromorphone ester]
- Cmax of HM in rat plasma ([5]; Compound 101 0 mg/kg): 9.0 ± 3.1 ng/mL
- Tmax of HM in rat plasma ([5]; Compound 101 0 mg/kg): 2.3 h
- Cmax of HM in rat plasma ([5]; Compound 101 10 mg/kg): 3.8 ± 2.9 ng/mL
- Tmax of HM in rat plasma ([5]; Compound 101 10 mg/kg): 3.5 h
- Cmax of hydromorphone in rat plasma ([6]; SBTI 0 mg/kg): 9.0 ± 3.1 ng/mL
- Tmax of hydromorphone in rat plasma ([6]; SBTI 0 mg/kg): 2.3 h
- Cmax of hydromorphone in rat plasma ([6]; SBTI 500 mg/kg): 2.3 ± 1.7 ng/mL
- Tmax of hydromorphone in rat plasma ([6]; SBTI 500 mg/kg): 7.3 h

Molecule: CCN(CCNC(=O)C(CCCNC(=N)N)NC(=O)CC(=O)O)C(=O)Oc1ccc2c3c1OC1C(=O)CCC4C(C2)N(C)CCC314 (stereo not drawn) [Compound PC-6, [2-(2-Malonyl-5-guanidino-pentanoylamino)-ethyl]-ethyl-carbamic acid hydromorphone ester]
- Rate of HM formation, umols/h/umol trypsin Average ± sd [1, 10]: 262 ± 11 umols/h/umol trypsin

Molecule: CCN(CCNC(=O)[C@H](CCCNC(=N)N)NC(C)=O)C(=O)Oc1ccc2c3c1OC1C(=O)CCC4C(C2)N(C)CCC314 (stereo partly drawn) [Compound PC-4, [2-((S)-2-Acetylamino-5-guanidino-pentanoylamino)-ethyl]-ethyl-carbamic acid hydromorphone ester]
- Rate of HM formation, umols/h/umol trypsin Average ± sd [1, 10]: 322 umols/h/umol trypsin and 243 ± 1 umols/h/umol trypsin
- Rate of HM formation, umols/h/umol trypsin Average ± sd ([1]; With trypsin inhibitor 3,089 uM Compound 109): 3.27 ± 1.87 umols/h/umol trypsin
- Cmax of HM in rat plasma ([7]; SBTI 0 mg/kg, n = 7): 7.7 ± 2.3 ng/mL
- Tmax of HM in rat plasma ([7]; SBTI 0 mg/kg, n = 7): 2.3 h
- Cmax of HM in rat plasma ([7]; SBTI 500 mg/kg, n = 4): 7.5 ± 2.1 ng/mL
- Tmax of HM in rat plasma ([7]; SBTI 500 mg/kg, n = 4): 6.5 h
- Cmax of HM in rat plasma ([8]; Compound 101 0 mg/kg, n = 7): 7.7 ± 2.3 ng/mL
- Tmax of HM in rat plasma ([8]; Compound 101 0 mg/kg, n = 7): 2.3 h
- Cmax of HM in rat plasma ([8]; Compound 101 10 mg/kg, n = 4): 4.8 ± 1.4 ng/mL
- Tmax of HM in rat plasma ([8]; Compound 101 10 mg/kg, n = 4): 6.0 h

Molecule: CCN(CCNC(=O)[C@H](CCCCN)NC(=O)CC(=O)O)C(=O)Oc1ccc2c3c1O[C@H]1C(=O)CC[C@H]4[C@@H](C2)N(C)CC[C@]314 [Compound PC-5, [2-((S)-2-malonylamino-4-amino-pentanoylamino)-ethyl]-ethyl-carbamic acid hydromorphone ester]
- Rate of HM formation, umols/h/umol trypsin Average ± sd [1, 10]: 106 ± 2 umols/h/umol trypsin

Molecule: CN(CCNC(=O)[C@@H](N)CCCNC(=N)N)C(=O)Oc1ccc2c3c1OC1C(=O)CCC4C(C2)N(C)CCC314 (stereo partly drawn) [Compound PC-2, [2-((S)-2-amino-5-guanidino-pentanoylamino)-ethyl]-methyl-carbamic acid hydromorphyl ester]
- Cmax of hydromorphone in rat plasma ([9]; SBTI 0 mg/kg): 14.2 ± 2.6 ng/mL
- Cmax of hydromorphone in rat plasma ([9]; SBTI 500 mg/kg): 7.3 ± 3.5 ng/mL

B1: ovalbumin: Albumin from chicken egg white, used as a non-trypsin inhibitor protein control (protein, UniProt P01012 2-386, looked up)
Ovalbumin: GSIGAASMEFCFDVFKELKVHHANENIFYCPIAIMSALAMVYLGAKDSTRTQINKVVRFDKLPGFGDSIEAQCGTSVNVHSSLRDILNQITKPNDVYSFSLASRLYAEERYPILPEYLQCVKELYRGGLEPINFQTAADQARELINSWVESQTNGIIRNVLQPSSVDSQTAMVLVNAIVFKGLWEKAFKDEDTQAMPFRVTEQESKPVQMMYQIGLFRVASMASEKMKILELPFASGTMSMLVLLPDEVSGLEQLESIINFEKLTEWTSSNVMEERKIKVYLPRMKMEEKYNLTSVLMAMGITDVFSSSANLSGISSAESLKISQAVHAAHAEINEAGREVVGSAEAGVDAASVSEEFRADHPFLFCIKHIATNAVLFFGRCVSP
- Effect on Compound PC-1's ability to release hydromorphone [4]: does not significantly affect Compound PC-1's ability to release hydromorphone

B2: SBTI: trypsin inhibitor from Glycine max (soybean) (Catalog No. 93620, ˜10,000 units per mg, Sigma-Aldrich) (protein, UniProt P01070 25-205, looked up)
Trypsin inhibitor A: DFVLDNEGNPLENGGTYYILSDITAFGGIRAAPTGNERCPLTVVQSRNELDKGIGTIISSPYRIRFIAEGHPLSLKFDSFAVIMLCVGIPTEWSVVEDLPEGPAVKIGENKDAMDGWFRLERVSDDEFNNYKLVFCPQQAEDDKCGDIGISIDHDDGTRRLVVSKNKPLVVQFQKLDKESL
- Effect of SBTI on Compound PC-1's ability to release hydromorphone ([3]; rats PO, PC-1 20 mg/kg with 10, 100, 500 or 1000 mg/kg SBTI): attenuates Compound PC-1's ability to release hydromorphone in a dose-dependent manner that can approach approximately 100% attenuation at higher SBTI concentrations; also recorded: suppresses Cmaxand delays Tmax
- Effect of SBTI on Compound PC-3's ability to release hydromorphone ([6]; rats PO, PC-3 20 mg/kg with 500 mg/kg SBTI): attenuates Compound PC-3's ability to release hydromorphone, both with respect to suppressing Cmaxand delaying Tmax
- Effect of SBTI on Compound PC-4's ability to release hydromorphone ([7]; rats PO, PC-4 20 mg/kg with 500 mg/kg SBTI): attenuates Compound PC-4's ability to release hydromorphone, at least with respect to delaying Tmax
- Effect of SBTI on Compound PC-2's ability to release hydromorphone ([9]; rats PO, PC-2 20 mg/kg with 500 mg/kg SBTI): attenuates Compound PC-2's ability to release hydromorphone, both with respect to suppressing Cmaxand delaying Tmax
- Effect on Compound PC-1's ability to release hydromorphone [4]: suppresses Cmaxand delays Tmax of such hydromorphone in plasma, even in the presence of ovalbumin; also recorded: acting specifically by inhibiting trypsin rather than in a non-specific manner
- IC50 (trypsin): 270 nM
